Patent publication US8541458B2, “Oxabicycloheptanes and oxabicycloheptenes, their preparation and use” (Lixte Biotechnology, Inc., priority 2008, dated 2013)
Structures can show the parent of a compound that is named as a salt.

How the values were obtained:
[1] = test system: glioblastoma multiforme cells of line U373; test: Inhibition of growth of glioblastoma multiforme cells, 7 days exposure; type: cell-based
Experimental: Inhibition of growth of glioblastoma multiforme cells of line U373 by exposure for 7 days to increasing concentrations of compound 109 compared to 10 uM compound 100.
Inhibition of growth of glioblastoma multiforme cells of line U373 by exposure for 7 days to increasing concentrations of compound 110 compared to 10 uM compound 100.
Inhibition of growth of glioblastoma multiforme cells of line […] by exposure for 7 days to increasing concentrations of compound 113 compared to 10 uM compound 100.
Inhibition of Growth of Glioblastoma Multiforme Cells of Line […] by Exposure for 7 Days to Increasing Concentrations of Compound 109, 110, 112, and 113

[2] = Entry into the brain
[3] = test system: Human Medulloblastoma DAOY cells; test: DAOY xenografts implanted subcutaneously in SCID mice, tumor volume; type: in vivo; details: subcutaneous DAOY xenografts, 0.12 mg and 0.18 mg doses, two weeks of treatment, vs vehicle (PBS)
Experimental: (§1) Medulloblastoma DAOY cells were implanted subcutaneously in the flanks of SCID mice. After 7 days when the implanted tumor cells reached a mass with the average diameter of 6 mm, 6 animals received 0.12 mg of Compound 110, 6 animals received 0.18 mg of Compound 110, and 6 animals, received vehicle (PBS) only. After two weeks of treatment all animals were sacrificed, the subcutaneous tumor masses resected, and their volumes calculated.
as §1, with “Human Medulloblastoma” for “Medulloblastoma”, “animals” for “animals,”, “treatment,” for “treatment”

[4] = test system: Akt; test: Akt phosphorylation after intraperitoneal administration to mice; type: in vivo; details: given intraperitoneally to normal mice
From the text: The compounds described herein increase the phosphorylation of several regulatory proteins including Akt. At low doses that are non-toxic to mice, these compounds slightly stimulate cell proliferation and increase phosphorylation of Akt in human cancer cells lines tested, including SH-SY5Y.
The mechanism by which the compounds described herein exert their neuroprotective effect may be by increasing the intra-neuronal cell activity of Akt-1 and enhancing the acetylation of neuronal histones. Each of these compounds when given by intraperitoneal injection increase Akt phosphorylation in mouse neurons. This increase in Aky phosphorylation is associated with an increase in the phosphorylation of GSK-3β. Because increased phosphorylation of GSK-3β is known to decrease its activity, chronic suppression of GSK 3β by the compounds described herein may reduce tau phosphorylation. Reduction in tau phosphorylation reduces the formation of paired helical filaments, an intervention that should lessen the progression of tauopathies, including Alzheimer's disease, Parkinson's disease, amyotrophic lateral sclerosis, and other rarer neurodegenerative diseases characterized by abnormal depositions of tau molecules.

[5] = increasing concentrations, 7 days exposure

Compound | inhibition of cell growth [1, 5] | entry into the brain [2] | melting point | Akt phosphorylation [4] | also measured
CN1CCN(C(=O)C2C3CCC(O3)C2C(=O)Oc2ccc(CC(NC(=O)OC(C)(C)C)C(=O)O)cc2)CC1 (centres unmarked) [Compound 112, 3-(4-Methylpiperazine-1-carbonyl)-7-oxa-bicyclo[2,2,1]heptane-2-carboxylic acid 4-(2-tert-butoxycarbonylamino-2-carboxyethyl)-phenyl ester] | inhibited cell growth in a dose dependent manner | properties that enhance their entry into the brain | 165 °C (dec.) | – | –
CN1CCN(C(=O)C2C3CCC(O3)C2C(=O)Oc2ccc(CC(N)C(=O)O)cc2)CC1 (centres unmarked) [Compound 110, 3-(4-Methylpiperazine-1-carbonyl)-7-oxa-bicyclo[2,2,1]heptane-2-carboxylic acid 4-(2-amino-2-carboxyethyl)-phenyl ester hydrochloride salt] | inhibited cell growth in a dose dependent manner | properties that enhance their entry into the brain | – | increased Akt phosphorylation | inhibition of tumor growth (tumor volume) [3]: significant inhibition of tumor growth
CN1CCN(C(=O)C2C3CCC(O3)C2C(=O)Oc2ccc(CC(N)C(=O)O)cc2)CC1 (centres unmarked) (as salt: hydrochloride) [Compound 110, 3-(4-Methylpiperazine-1-carbonyl)-7-oxa-bicyclo[2,2,1]heptane-2-carboxylic acid 4-(2-amino-2-carboxyethyl)-phenyl ester hydrochloride salt] | – | – | 110 °C (dec.) | – | –
O=C(O)C1C2CCC(O2)C1C(=O)NCCN1C(=O)NC(c2ccccc2)(c2ccccc2)C1=O (centres unmarked) [Compound 114, 3-[2-(2,5-Dioxo-4,4-diphenyl-imidazolidin-1-yl)-ethylcarbamoyl]-7-oxa-bicyclo(2.2.1]heptane-2-carboxylic acid] | – | properties that enhance their entry into the brain | – | – | –
O=C(OCc1ccccc1)C1C2CCC(O2)C1C(=O)N1CCN(CCO)CC1 (centres unmarked) [Compound 109, 3-[4-(2-Hydroxyethyl)-piperazine-1-carbonyl]-7-oxa-bicyclo[2.2.1]heptane-2-carboxylic acid benzyl ester] | – | – | – | – | inhibition of cell growth ([1]; highest concentrations, after 3 day): slight inhibition of cell growth; stimulation of cell growth ([1]; lower concentrations, increasing over 7 days): slight stimulatory activity
CN1CCN(C(=O)C2C3CCC(O3)C2C(=O)OCC(Cl)(Cl)Cl)CC1 (centres unmarked) [Compound 113, 3-(4-Methyl-piperazine-1-carbonyl)-7-oxa-bicylco[2,2,1]heptane-2-carboxylic acid 2,2,2-trichloroethyl ester] | inhibited cell growth in a dose dependent manner | properties that enhance their entry into the brain | – | increased Akt phosphorylation | –
